pIC50: −log10 of the molar value. Like-named read-outs stand apart in the source and are kept apart here.
Biological target: T1, sproBACE1 (soluble human BACE1) (Homo sapiens, UniProt P56817)
T1 construct: sBACE1, corresponding to amino acids 1-454; made in house; host or cells: Sf9 insect cells (baculovirus); purified from culture supernatant
Assay: Peptide hydrolysis assay (HTRF, EuK-biotin labeled APPsw substrate)
Type: biochemical
Conditions: 7 nM sproBACE1, pH 5.0, 3 hr at 30° C.
Excerpt: A predicted soluble form of human BACE1 (sBACE1, corresponding to amino acids 1-454) was generated from the full length BACE1 cDNA (full length human BACE1 cDNA in pcDNA4/mycHisA construct; University of Toronto) by PCR using the advantage-GC cDNA PCR kit (Clontech, Palo Alto, Calif.). A HindIII/Pmel fragment from pcDNA4-sBACE1 myc/His was blunt ended using Klenow and subcloned into the Stu I site of pFASTBACI(A) (Invitrogen). A sBACE1 mycHis recombinant bacmid was generated by transposition in DH10Bac cells(GIBCO/BRL). Subsequently, the sBACE1 mycHis bacmid construct was transfected into sf9 cells using CellFectin (Invitrogen, San Diego, Calif.) in order to generate recombinant baculovirus. Sf9 cells were grown in SF 900-II medium (Invitrogen) supplemented with 3% heat inactivated FBS and 0.5× penicillin/streptomycin solution (Invitrogen). Five milliliters of high titer plaque purified sBACEmyc/His virus was used to infect 1 L of logarithmically growing sf9 cells for 72 hours. Intact cells were pelleted by centrifugation at 3000×g for 15 minutes. The supernatant, containing secreted sBACE1, was collected and diluted 50% v/v with 100 mM HEPES, pH 8.0. The diluted medium was loaded onto a Q-sepharose column. The Q-sepharose column was washed with Buffer A (20 mM HEPES, pH 8.0, 50 mM NaCl).
Proteins, were eluted from the Q-sepharose column with Buffer B (20 mM HEPES, pH 8.0, 500 mM NaCl). The protein peaks from the Q-sepharose column were pooled and loaded onto a Ni-NTA agarose column. The Ni-NTA column was then washed with Buffer C (20 mM HEPES, pH 8.0, 500 mM NaCl). Bound proteins were then eluted with Buffer D (Buffer C+250 mM imidazole). Peak protein fractions as determined by the Bradford Assay (Biorad, Calif.) were concentrated using a Centricon 30 concentrator (Millipore). sBACE1 purity was estimated to be ˜90% as assessed by SDS-PAGE and Commassie Blue staining.
The inhibitor, 25 nM EuK-biotin labeled APPsw substrate (EuK-KTEEISEVNLDAEFRHDKC-biotin; CIS-Bio International, France), 5 μM unlabeled APPsw peptide (KTEEISEVNLDAEFRHDK; American Peptide Company, Sunnyvale, Calif.), 7 nM sproBACE1, 20 mM PIPES pH 5.0, 0.1% Brij-35 (protein grade, Calbiochem, San Diego, Calif.), and 10% glycerol were preincubated for 30 min at 30° C. […] HTRF measurements were made on a Packard Discovery® HTRF plate reader using 337 nm laser light to excite the sample followed by a 50 μs delay and simultaneous measurements of both 620 nm and 665 nm emissions for 400 μs.
IC50 determinations for inhibitors, (I), were determined by measuring the percent change of the relative fluorescence at 665 nm divided by the relative fluorescence at 620 nm, (665/620 ratio), in the presence of varying concentrations of I and a fixed concentration of enzyme and substrate. […]

[1] = read-out: Activity (IC50 classification)

T1 sequence (P56817 22-454): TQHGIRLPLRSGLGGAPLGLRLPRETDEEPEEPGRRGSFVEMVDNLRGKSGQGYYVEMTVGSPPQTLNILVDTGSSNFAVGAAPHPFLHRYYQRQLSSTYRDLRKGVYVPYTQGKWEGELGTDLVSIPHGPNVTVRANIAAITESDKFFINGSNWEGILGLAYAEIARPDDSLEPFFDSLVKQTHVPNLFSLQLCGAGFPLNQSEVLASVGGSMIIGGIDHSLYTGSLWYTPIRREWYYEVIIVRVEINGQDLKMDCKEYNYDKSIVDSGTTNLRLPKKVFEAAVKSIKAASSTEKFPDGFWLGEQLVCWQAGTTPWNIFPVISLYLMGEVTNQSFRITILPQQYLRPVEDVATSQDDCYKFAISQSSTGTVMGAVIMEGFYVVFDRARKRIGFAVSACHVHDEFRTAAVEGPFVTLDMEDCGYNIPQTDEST

pIC50 [1]	SMILES	further results
5.00 to 6.00	CCCN1CCCCOc2ccc(cc2)C[C@@H](C(O)C2NCCN(Cc3ccccc3)C2=O)NC(=O)c2cccc(c2)C1=O (stereo partly shown)	
	CCCN1CCCCOc2cc(F)cc(c2)CC(C(O)C2NCCN(Cc3ccccc3)C2=O)NC(=O)c2cccc(c2)C1=O (stereo not shown)	Activity (IC50 classification): A or B
	O=C1N[C@H]([C@H](O)[C@@H]2NCCN(Cc3ccccc3)C2=O)Cc2cc(F)cc(c2)OCCCCN2CC1CC2=O (stereo partly shown) [drawing 69]	pIC50 (read-out: IC50): 8.40
6.00 to 8.70	O=C1N[C@H]([C@H](O)[C@@H]2NCCN(Cc3ccccc3)C2=O)Cc2cc(F)cc(c2)OCCCCN2CC1CC2=O (stereo partly shown) [drawing 72]	

— patent publication US7652003B2, “Macrocyclic β-secretase inhibitors” (Schering-Plough Corporation, priority 2004, dated 2010)
